Molecules are shown by their SMILES.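 Briefly, cells in 96-well plates were exposed to five compound concentrations for 48 h, and endpoints were estimated by linear interpolation. The concentration for 50% growth inhibition is given as GI50.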 Active and inactive are the calls of the source. Rule as the data show it: active = GI50 up to about 1.1 µM and inactive = higher.

Among the test systems are Hs-578T; T47D; DLD-1; SNB-78.
Holding throughout (test): NCI tumour cell line growth inhibition, 48 h

With `O=C(CC(C(=O)c1cccs1)c1ccsc1)c1ccc(Cl)s1` (centres undefined), the figures for the GI50 in the test on Hs-578T and in the test on T47D were 60.1 µM (inactive) and 44.3 µM (inactive), respectively. Consider `COc1cccc(Cc2c3cc(OC)ccc3cc[n+]2C)c1`, for which the GI50 in the test on DLD-1 and in the test on SNB-78 was > 100 µM (inactive) in each case. With `CSC(=O)c1sc(SC)[n+](-c2ccccc2)c1O`, the GI50 is 28.3 µM (inactive) in the test on Hs-578T and 7.35 µM (inactive) with T47D. In the same order, the values of `COC(=O)/C=C1\C(=O)N(C(C)=O)c2ccc(Br)cc21` are 8.39 µM (inactive) and 5.02 µM (inactive).

With `CCOC(=O)[C@H]1C[C@]23CN(C(=O)OC(C)(C)C)CC[C@H]2CCC2(SCCCS2)[C@@H]3N1C`, the GI50 is 51.6 µM (inactive) in the test on Hs-578T and 25.8 µM (inactive) in the test with T47D. Regarding `Clc1sc(Cl)c2c1[C@@H](Cl)C[C@@H]2Br`, the GI50 is 65.8 µM (inactive) in the test with Hs-578T and 44.7 µM (inactive) in the test with T47D.

Regarding `O=C1Oc2ccccc2C(=O)/C1=C\Nc1nc(-c2ccccc2)cs1`, the GI50 was 15.7 µM (inactive) in the test on Hs-578T and 15.9 µM (inactive) in the test with T47D.

Regarding `Cc1ccc2nc(N/N=C/c3cccc(C)n3)cc(C)c2c1`, the results for the GI50 with Hs-578T and in the test with T47D were 23.8 µM (inactive) and 16 µM (inactive), respectively.

In the case of `O=C(NCCNCCO)N/N=C/c1ccc(Cl)cc1`, the GI50 with Hs-578T and in the test on T47D was > 100 µM (inactive) each time. In the case of `CCCCCCCCCCCCCCCCCCOP1(=O)OCCO1`, the GI50 in the test on T47D is > 100 µM (inactive). On to `NC1=NCC(CN2CCOCC2)O1` (centres undefined), for which the GI50 in the test with Hs-578T and with T47D was > 100 µM (inactive) throughout.

Consider `O=P(Oc1ccccc1)(Oc1ccccc1)Oc1c[nH]c2ccccc12`, for which the GI50 in the test with Hs-578T was 13.3 µM (inactive); with T47D, 8.91 µM (inactive).

Take `CSc1c(C#N)c(N)n(-c2ccc(Cl)cc2)c(=O)c1C#N`: the GI50 in the test with Hs-578T and with T47D was > 100 µM (inactive) each time. Consider `C=C1c2ccccc2Oc2nc3nc(N)c(C#N)c(N)c3c(N)c21`, for which the results for the GI50 with Hs-578T and in the test on T47D were 21.9 µM (inactive) and 51.1 µM (inactive), respectively. For `CC1(C)C2CCC(=O)C1CC2` (centres undefined), in that order: > 100 µM (inactive) and > 100 µM (inactive). Take `Cc1cc(C)nc(NS(=O)(=O)c2ccc(Nc3c4ccccc4nc4c(C(=O)NCCO)cccc34)cc2)n1`: the values for the GI50 in the test on Hs-578T and in the test with T47D were 53.1 µM (inactive) and 25.9 µM (inactive), respectively. In the same order, the values of `CN(C)c1ccc(/C=C2\C[C@H]3[C@@H]4CC=C5C[C@@H](N6CCCC6)CC[C@]5(C)[C@H]4CC[C@]3(C)[C@H]2O)cc1` are 0.883 µM (active) and 0.998 µM (active). On to `S=c1[nH]nc(Cn2c3ccc(Br)cc3c3nc4ccccc4nc32)o1`, for which the GI50 in the test on T47D was 47.3 µM (inactive). On to `CN1CC[C@]2(c3cccc(O)c3)CC(=O)/C(=C/c3ccc(Cl)c(Cl)c3)[C@@H]1C2`, for which the GI50 in the test with Hs-578T is 3.05 µM (inactive).

Turning to `COc1ccc(NC(=O)CC(=O)N2N=C(c3ccccc3)C(/N=N/c3ccc(S(=O)(=O)CCOS(=O)(=O)O)cc3)C2=O)cc1` (centres undefined), the GI50 in the test on Hs-578T and in the test with T47D was > 100 µM (inactive) each time. In the case of `O=C1Nc2ccccc2C1(O)Cc1ccccn1` (centres undefined), the GI50 in the test on Hs-578T and with T47D was > 100 µM (inactive) in each case. Take `CCCCCCCCCC(=O)NCCc1c[nH]c2ccc(OC)cc12`: the GI50 in the test with Hs-578T is 20.1 µM (inactive); with T47D, 19.7 µM (inactive).

`Clc1n[nH]c2ccccc12`: the GI50 in the test on Hs-578T and in the test with T47D was > 100 µM (inactive) throughout. As to `C=CCN(c1cc(OC)c2c(c1[N+](=O)[O-])C(C)(SC)C(=O)N2)S(C)(=O)=O` (centres undefined), the GI50 is 55.5 µM (inactive) in the test on Hs-578T and > 100 µM (inactive) in the test with T47D. As to `COCP1(=S)OC(C)CCN1C(C)C` (centres undefined), the GI50 with T47D is > 100 µM (inactive).

As to `CC(C)=CCC[C@](C)(O[C@@H]1O[C@H](CO)[C@@H](O)[C@H](O)[C@H]1O)[C@H]1CC[C@]2(C)[C@@H]1[C@H](O)C[C@@H]1[C@@]3(C)CC[C@H](O)C(C)(C)[C@@H]3[C@@H](O[C@@H]3O[C@H](CO)[C@@H](O)[C@H](O)[C@H]3O)C[C@]12C` [GINSENOSIDE RG1], the GI50 in the test on Hs-578T and in the test on T47D was > 100 µM (inactive) throughout. With `CSCCCNC(=O)c1csc([C@@H](CSC)NC(=O)CCNC(=O)[C@@H](NC(=O)OCC(Br)(Br)Br)C(C)O)n1` (some centres undefined), the GI50 in the test with Hs-578T was > 100 µM (inactive). As to `CC1CC(c2ccccc2)Nc2nc3ccccc3n21` (centres undefined), the GI50 with Hs-578T and in the test with T47D was > 100 µM (inactive) throughout. As to `Cc1cccc(NC(=S)Nc2cccc(Cl)c2)n1`, the values for the GI50 in the test on Hs-578T and with T47D were > 65.3 µM (inactive) and > 100 µM (inactive), respectively. As for `CC(=O)C(C)C(=O)N1C(=O)N(C)C2(C)N(C)C(=O)NC12C` (centres undefined), the GI50 in the test on Hs-578T was > 100 µM (inactive). As for `C=CC(CCc1ccc(C(=O)OCC)cc1)c1c(N)nc(N)[nH]c1=O` (centres undefined), the GI50 was > 100 µM (inactive) in the test on Hs-578T and 72.4 µM (inactive) in the test on T47D.

Regarding `CN(C(=O)Cc1ccc(Cl)c(Cl)c1)[C@@H]1CCCC[C@H]1[N+]1(C)CC=CC1`, the GI50 in the test on T47D is > 100 µM (inactive). Turning to `CC(=O)Oc1ccc2c(-c3ccccc3)c(Oc3ccc(Cl)cc3)c(=O)oc2c1`, the GI50 was 20.1 µM (inactive) in the test on Hs-578T and 6.21 µM (inactive) in the test on T47D. For `CNC(=S)N/N=C(\C)c1ccc(OC)cc1O`, in that order: > 89.9 µM (inactive) and > 100 µM (inactive).

With `c1ccc(-c2nnn(CCN3CCCCC3)n2)cc1`, the GI50 in the test with Hs-578T and in the test on T47D was > 100 µM (inactive) each time. Consider `O=C1N/C(=N\N=C\c2ccccc2)C2(CCCCC2)O1`, for which the results for the GI50 in the test on Hs-578T and with T47D were 46.8 µM (inactive) and > 100 µM (inactive), respectively. Regarding `COC(=O)Nc1nc2cc(S(=O)(=O)N3CCOCC3)ccc2[nH]1`, the GI50 in the test on Hs-578T and with T47D was > 100 µM (inactive) in each case. As to `CSc1csc(-c2ccc(-c3ccc(-c4cc(SC)cs4)s3)s2)c1`, the GI50 in the test with Hs-578T was > 100 µM (inactive). As for `O=c1cc(-c2ccccc2)oc2ccc(Oc3nnnn3-c3ccccc3)cc12`, the GI50 was 28.3 µM (inactive) in the test with Hs-578T and 12.1 µM (inactive) in the test with T47D. For `COc1ccc(-c2c(/C=N/OCC(=O)O)c3sc4ccccc4n3c2/C=N/OCC(=O)O)cc1`, in that order: > 50 µM (inactive) and > 50 µM (inactive). For `CN(CCNC(=O)c1cn(C)c2c1ccc1ccccc12)CCNC(=O)c1cn(C)c2c1ccc1ccccc12`, the GI50 with Hs-578T is 2.18 µM (inactive). Take `CCOP(=O)(/C=C\n1cc(C)c(=O)[nH]c1=O)OCC`: the GI50 in the test with T47D is > 100 µM (inactive).

Regarding `NC(=S)N/N=C1\CCCC1C(O)(C(F)(F)Cl)C(F)(F)Cl` (centres undefined), the GI50 in the test with Hs-578T and in the test with T47D was > 10 µM (inactive) in each case. Consider `C=C1CCC[C@@H](C)C(O)[C@@H]2OC(=O)C(=C)[C@@H]2C[C@@H](OC(C)=O)[C@@]2(C)CC[C@@H]1O2` (some centres undefined), for which the GI50 in the test on Hs-578T was 8.67 µM (inactive); in the test on T47D it was 9.66 µM (inactive). For `Cc1ccc(N2C=Nn3c(nc4sc5c(c4c3=O)CCCC5)C2)cc1`, in that order: 28.1 µM (inactive) and 43.3 µM (inactive). In the case of `NC(=O)CO/N=C1/C(=C2/C(=O)Nc3ccccc32)Nc2ccccc21`, the GI50 with Hs-578T was > 100 µM (inactive). Regarding `c1ccc2c(c1)SCCCSCCSCCCS2`, in the test on T47D, the GI50 was > 100 µM (inactive). For `CC12CC(c3ccccc3O1)C(C(=O)Nc1cccc(F)c1)C(=O)N2` (centres undefined), the GI50 with Hs-578T was > 100 µM (inactive); in the test with T47D, 25.2 µM (inactive).
